Reference: patent US20090018111A1, “Novel Antimicrobial Medicament” (priority 2004, published 2009)
Where two headings read alike, the source gives them in different places.

What was measured:
E. coli ML1410 = experiment: Sensitivity test (agar dilution); format: cell-based, Escherichia coli; details: Escherichia coli, E. coli ML1410
In short: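 Water-dissolved compounds, alone or mixed, were incorporated into Mueller Hinton agar at twofold serial concentrations. Spot inoculation used about 5 μl of about 10^6 CFU/ml suspension.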

[1] = test system: 18 bacteria (27 standard strains); experiment: Sensitivity test, combination effect over the standard strains; format: cell-based; details: in combination with compound 1, standard strains
Method: The antibacterial activities were tested against various 18 bacteria (27 standard strains) which are representative bacteria caused clinically infectious disease (Staphylococcus aureus 3 strains, Staphylococcus epidermidis 1 strain, Micrococcus luteus 1 strain, Streptococcus pyogenes 1 strain, Enterococcus faecalis 1 strain, Enterococcus faecium 1 strain, Bacillus subtilis 1 strain, Escherichia coli 3 strains, Klebsiella pneumoniae 1 strain, Proteus mirabilis 1 strain, Proteus vulgaris 2 strains, Pseudomonas aeruginosa 3 strains, Serratia marcescens 2 strains, Enterobacter aerogenes 1 strain, Stenotrophomonas maltophilia 1 strain, Enterobacter cloacae 1 strain, Citrobacter freundii 1 strain, Moraxella catarrhalis 2 strains).
According to the standard method of Japan Chemotherapeutic Society (Chemotherapy, vol. […], p 76-79 (1981)) the test was carried out using the agar dilution method. After dissolving test samples in distilled water, agar medium containing the test samples was prepared in such a manner that the final concentration became twice serial dilution by pouring serially diluted combination drug solution or a single drug solution into agar medium. As agar medium was used Mueller Hinton Agar medium (MHA). Then, each strain was cultivated over night at 37° C. in an incubator and suspended in buffered saline solution with gelatin (BSG) in the concentration of about 10^6 CFU/ml. The suspension (about 5 μl) containing test strains was inoculated to the medium containing the test samples by Micro Planter.
When the sample is subjected to sensitivity test, this mixed solution was diluted by twice serial dilution method.
FIC index based on MIC value was calculated. […] Namely, when FIC index calculated by the following formula is equal or less than 1, the enhanced effect of the combination drug in said ratio is considered as positive. When FIC index is over 1, the enhanced effect of the combination drug in said ratio is considered as negative.
Formula of FIC index: FIC index=(MIC of Drug A in combination/MIC of Drug A alone)+(MIC of Drug B in combination/MIC of Drug B alone) N.C. in tables means being not calculated.

## C[C@@H](O)[C@H]1C(=O)N2C(C(=O)O)=C(S[C@@H]3CN[C@H](CNS(N)(=O)=O)C3)[C@H](C)[C@H]12 [DRPM, doripenem]
E. coli ML1410; ML1410, Concomitant (DRPM:SM = 1:1), read-out: MIC concomitant
  MIC: 0.031 µg/mL
E. coli ML1410; ML1410, drug alone, read-out: MIC alone
  MIC: 0.031 µg/mL
[1]
  combination effect: the combination effect was recognized
